# Assay results taken from EP0423240B1, “MODULATION OF VIRUS-HOST CELL INTERACTIONS USING CYCLIC OLIGOSACCHARIDES” (THE TRUSTEES OF THE UNIVERSITY OF PENNSYLVANIA, priority 1988, dated 1990).
# How the values were obtained:
# HIV = experiment: Reverse transcriptase assay after prolonged culture (6 days with compound, further 10 days in fresh media); assay type: cell-based; details: then 10 days in fresh media
# Protocol: (§1) Figure 6 compares the effects of dextran polysulfate and substituted β-cyclodextrins on HIV infectivity. In (A) degree of syncytia inhibition is shown on the ordinate for each compound added. SUL = 600 µM β-CD-14S, AL = 600 µM unsubstituted β-CD, Pro = 600 µM propoxylated β-CD, 2MET = 300 µM methoxylated β-CD, DS5 = 600 µM dextran sulfate 5,000, DS500 = 600 µM dextran sulfate 500,000. Results for each of 3 time points are shown. In (B) similar results utilizing reverse transcriptase assays are shown. Infectious virus particles were incubated in the presence of sulfated β-cyclodextrin (lane 1), dextran sulfate 5000 (lane 2) or media (lane 3) for 6 days at which time cells were resuspended in fresh media and allowed to incubate a further 10 days before being harvested. Reverse transcriptase activity was assayed as described in Section 6.1, infra. 1/2 dilutions of the compound added are shown from bottom (highest concentration at 2.5 mM) to top (lowest concentration).
# Virus infected cells were pelleted by centrifugation and 50 µl of culture suprenatant was collected from each well for assay. Culture supernatant (25 µl) was plated in 96 well round bottomed plates and 50 µl of transcriptase cocktail was added to each well. […] After incubation samples were spotted onto Whatman DEAE-81 paper, washed and analyzed by counting or direct autoradiography. […]
# HIV-1 = experiment: HIV-induced syncytia formation over time, comparison with dextran sulfates; assay type: cell-based; details: during the culture period (48 hours)
# Protocol: as §1
# For the assay of HIV-1 fusion, Supt T1 cells were used as target cells. They fuse rapidly when cocultured with HIV-1 (H9/IIIb) producing cell lines. For the assay of HIV-2 mediated cell fusion, H9 cells were used as target cells. […] Target cells are then added 5 x 10⁵/well and the number of syncytia are qualitatively determined after the incubation periods described in the text.
substance,measurement,setting,value
beta-cyclodextrin tetradecasulfate [Beta-CD-14S],anti-viral activity (reverse transcriptase activity),HIV,significant anti-viral activity even after prolonged periods of tissue culture
same,anti-syncytial activity,HIV-1,remained unchanged
